Test results from article PMC12486152, “Design, modular synthesis and screening of 58 shape-diverse 3-D fragments” (Chemical Science, 2025).

Target: T1, N-acetylglucosaminyltransferase V (MGATV) (Homo sapiens, UniProt Q09328)
T1 construct: gene MGAT5
Assay: X-ray crystal structure by soaking; also thermal shift, STD NMR and enzyme (UDP-Glo) inhibition (IC50, n = […])
Format: biochemical

T1 sequence (Q09328 214-741): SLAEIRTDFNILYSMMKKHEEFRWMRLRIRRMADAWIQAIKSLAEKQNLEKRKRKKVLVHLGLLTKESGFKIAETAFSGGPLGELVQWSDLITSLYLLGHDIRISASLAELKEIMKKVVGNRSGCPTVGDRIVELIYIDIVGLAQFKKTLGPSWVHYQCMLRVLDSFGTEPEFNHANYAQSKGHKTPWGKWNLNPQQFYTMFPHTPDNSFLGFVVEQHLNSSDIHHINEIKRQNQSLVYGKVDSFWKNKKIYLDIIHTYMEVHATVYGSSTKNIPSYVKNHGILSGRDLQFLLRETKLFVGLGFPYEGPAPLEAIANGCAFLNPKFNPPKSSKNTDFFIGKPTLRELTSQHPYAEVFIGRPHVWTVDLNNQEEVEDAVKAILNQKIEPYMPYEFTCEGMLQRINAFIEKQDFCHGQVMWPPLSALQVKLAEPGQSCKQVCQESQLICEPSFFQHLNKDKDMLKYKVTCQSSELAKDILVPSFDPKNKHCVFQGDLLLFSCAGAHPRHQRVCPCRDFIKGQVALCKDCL

CC(=O)N1CCCC(C(=O)O)(c2ccc(C)cc2)C1 (racemic) [8p]
IC50: ~4.4 mM
